Values joined by “and” are separate entries in the source; they are usually repeats but may differ in a detail not shown here. Equal values may be shown once. Toxic doses and inconclusive results are not listed. Rule as the data show it: active = T/C of 150% or more; inactive = T/C below 125%. Peptide text beside a SMILES is read from it.
Test system: L1210 leukemia ip in BDF1 mice, survival T/C
Test: NCI In Vivo Anticancer Drug Screen. Data for tumor model L1210 Leukemia (intraperitoneal) in B6D2F1 (BDF1) mice
Details: endpoint: mean survival time, higher = longer survival
Summary of the method: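 Ratio derived from survival: compound-dosed mice over vehicle-dosed mice, all bearing a transplantable tumor.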

[1] = dose: 100.0 mg/kg/injection, schedule: Q04DX003 (ip), vehicle: saline
[2] = dose: 200.0 mg/kg/injection, schedule: Q04DX003 (ip), vehicle: saline
[3] = dose: 100.0 mg/kg/injection, schedule: Q04DX003 (ip), vehicle: saline with Tween-80
[4] = dose: 200.0 mg/kg/injection, schedule: Q04DX003 (ip), vehicle: saline with Tween-80
[5] = dose: 400.0 mg/kg/injection, schedule: Q04DX003 (ip), vehicle: saline with Tween-80
[6] = dose: 50.0 mg/kg/injection, schedule: Q01DX001 (ip), vehicle: carboxymethylcellulose (CMC)
[7] = dose: 100.0 mg/kg/injection, schedule: Q01DX001 (ip), vehicle: saline
[8] = dose: 200.0 mg/kg/injection, schedule: Q01DX001 (ip), vehicle: saline
[9] = dose: 400.0 mg/kg/injection, schedule: Q01DX001 (ip), vehicle: saline
[10] = dose: 100.0 mg/kg/injection, schedule: Q01DX009 (ip), vehicle: saline with Tween-80
[11] = dose: 200.0 mg/kg/injection, schedule: Q01DX009 (ip), vehicle: saline with Tween-80
[12] = dose: 400.0 mg/kg/injection, schedule: Q01DX009 (ip), vehicle: saline with Tween-80
[13] = dose: 100.0 mg/kg/injection, schedule: Q01DX001 (ip), vehicle: Klucel (hydroxypropylcellulose) (HPC)
[14] = dose: 200.0 mg/kg/injection, schedule: Q01DX001 (ip), vehicle: Klucel (hydroxypropylcellulose) (HPC)
[15] = dose: 400.0 mg/kg/injection, schedule: Q01DX001 (ip), vehicle: Klucel (hydroxypropylcellulose) (HPC)

Measured: T/C

CCCCOC(=O)c1[nH]cnc1/N=N/N(C)CCCC
inactive: dose: 100.0 mg/kg/injection, schedule: Q01DX001 (ip), vehicle: other 112 % of control | dose: 200.0 mg/kg/injection, schedule: Q01DX001 (ip), vehicle: other 120 % of control

CCOC(=O)C1CC[N+](=c2cc(-c3ccc(Cl)cc3)ss2)CC1 (stereo unspecified)
inactive: [1] 95 % of control | [2] 96 % of control | dose: 400.0 mg/kg/injection, schedule: Q04DX003 (ip), vehicle: saline 101 % of control

CN(C)CCCN1CC2C3CCCCC3=C3CCCCC3C2C1 (stereo unspecified)
inactive: dose: 50.0 mg/kg/injection, schedule: Q01DX001 (ip), vehicle: saline 98 % of control

CCCCCCCC(=O)NO
inactive: [3] 98 % of control | [4] 102 % of control | [5] 102 % of control

O=CC1CO1 (stereo unspecified)
inactive: dose: 29.0 mg/kg/injection, schedule: Q01DX Z (ip), vehicle: steriod suspending solution 97 % of control | dose: 44.0 mg/kg/injection, schedule: Q01DX Z (ip), vehicle: steriod suspending solution 99 % of control | dose: 66.0 mg/kg/injection, schedule: Q01DX Z (ip), vehicle: steriod suspending solution 106 % of control

Cc1cccc(OCC(O)CN2CCN(c3ccccc3)CC2)c1 (stereo unspecified)
inactive: dose: 50.0 mg/kg/injection, schedule: Q01DX009 (ip), vehicle: Klucel (hydroxypropylcellulose) (HPC) 104 % of control | dose: 100.0 mg/kg/injection, schedule: Q01DX009 (ip), vehicle: Klucel (hydroxypropylcellulose) (HPC) 101 % of control | dose: 200.0 mg/kg/injection, schedule: Q01DX009 (ip), vehicle: Klucel (hydroxypropylcellulose) (HPC) 115 % of control

Cc1c2cnccc2c(C)c2c1c1ccccc1n2CCNCCO
inactive: dose: 6.25 mg/kg/injection, schedule: Q01DX009 (ip), vehicle: saline with Tween-80 97 % of control | dose: 12.5 mg/kg/injection, schedule: Q01DX009 (ip), vehicle: saline with Tween-80 122 % of control | dose: 25.0 mg/kg/injection, schedule: Q01DX009 (ip), vehicle: saline with Tween-80 113 % of control | dose: 100.0 mg/kg/injection, schedule: Q04DX003 (ip), vehicle: saline sonified 111 % of control | dose: 200.0 mg/kg/injection, schedule: Q04DX003 (ip), vehicle: saline sonified 103 % of control

NC(CO)C(=O)O.[Cl-].[Cl-].[Cl-].[Cl-].[Pt+2] (stereo unspecified)
inactive: dose: 12.5 mg/kg/injection, schedule: Q01DX009 (ip), vehicle: saline 114 % of control and 117 % of control | dose: 25.0 mg/kg/injection, schedule: Q01DX009 (ip), vehicle: saline 122 % of control | dose: 50.0 mg/kg/injection, schedule: Q01DX009 (ip), vehicle: saline 119 % of control

CCCCCCc1cc[n+](C(=O)c2ccc([N+](=O)[O-])cc2)cc1
inactive: [3] 102 % of control | [4] 104 % of control | [5] 94 % of control

NC(CSS(=O)(=O)O)=NC1CCCC1
inactive: dose: 12.5 mg/kg/injection, schedule: Q01DX001 (ip), vehicle: carboxymethylcellulose (CMC) 107 % of control | dose: 25.0 mg/kg/injection, schedule: Q01DX001 (ip), vehicle: carboxymethylcellulose (CMC) 101 % of control | [6] 102 % of control

O=C(O)/C=C/c1cnccn1
inactive: dose: 100.0 mg/kg/injection, schedule: Q04DX003 (ip), vehicle: carboxymethylcellulose (CMC) 103 % of control | dose: 200.0 mg/kg/injection, schedule: Q04DX003 (ip), vehicle: carboxymethylcellulose (CMC) 93 % of control | dose: 400.0 mg/kg/injection, schedule: Q04DX003 (ip), vehicle: carboxymethylcellulose (CMC) 97 % of control

Nc1cccc(OCCOc2cccc(S(=O)(=O)F)c2)c1
inactive: [7] 95 % of control | [8] 93 % of control | [9] 90 % of control

NNc1ccccc1Br
inactive: [1] 101 % of control | [2] 102 % of control

COC(=O)C1C=CCC(C(=O)OC)C1 (stereo unspecified)
inactive: [10] 91 % of control | [3] 109 % of control | [11] 96 % of control | [4] 96 % of control | [12] 100 % of control | [5] 93 % of control

Cc1ccc([N+](=O)[O-])cc1NC(=O)NCc1ccc(Cl)cc1
inactive: [10] 87 % of control | [11] 106 % of control | [12] 95 % of control

c1ccc(CCc2nccc3ccccc23)cc1
inactive: dose: 75.0 mg/kg/injection, schedule: Q01DX001 (ip), vehicle: saline 96 % of control | dose: 150.0 mg/kg/injection, schedule: Q01DX001 (ip), vehicle: saline 97 % of control

CC(NC(=O)C(CCC(=O)O)NC(=O)C(N)Cc1c[nH]c2ccccc12)C(=O)NCC(=O)NC(Cc1c[nH]c2ccccc12)C(=O)NC(CCC(=O)O)C(=O)NC(C)C(=O)NCC(=O)NCC(=O)O (stereo unspecified) (H-WEAGWEAGG-OH; configuration not given here)
inactive: [6] 96 % of control | dose: 100.0 mg/kg/injection, schedule: Q01DX001 (ip), vehicle: carboxymethylcellulose (CMC) 98 % of control | dose: 200.0 mg/kg/injection, schedule: Q01DX001 (ip), vehicle: carboxymethylcellulose (CMC) 96 % of control

CC(=O)Oc1ccc(OC(C)=O)c([N+](=O)[O-])c1
inactive: [7] 103 % of control | [8] 102 % of control | [9] 103 % of control

COc1ccc(N2C(=O)OC3(CCN(CCCC(=O)c4ccccc4)CC3)C2=O)cc1
inactive: dose: 100.0 mg/kg/injection, schedule: Q04DX003 (ip), vehicle: Klucel (hydroxypropylcellulose) (HPC) 101 % of control | dose: 200.0 mg/kg/injection, schedule: Q04DX003 (ip), vehicle: Klucel (hydroxypropylcellulose) (HPC) 98 % of control | dose: 400.0 mg/kg/injection, schedule: Q04DX003 (ip), vehicle: Klucel (hydroxypropylcellulose) (HPC) 92 % of control

CNC(=O)NCC1OC(n2cnc3c(N)ncnc32)C(O)C1O (stereo unspecified)
inactive: [13] 98 % of control | [14] 98 % of control | [15] 95 % of control

NC(CNC(=O)OCc1ccccc1)=NCC(=O)O
inactive: dose: 25.0 mg/kg/injection, schedule: Q04DX003 (ip), vehicle: saline with Tween-80 94 % of control | dose: 50.0 mg/kg/injection, schedule: Q04DX003 (ip), vehicle: saline with Tween-80 89 % of control | [3] 89 % of control and 92 % of control

CNCC/C=C1\c2ccccc2CCSc2ccccc21
inactive: dose: 25.0 mg/kg/injection, schedule: Q04DX003 (ip), vehicle: saline 98 % of control | dose: 50.0 mg/kg/injection, schedule: Q04DX003 (ip), vehicle: saline 101 % of control | [1] 95 % of control and 101 % of control

CC(=O)NCCCc1c(C)nc(N)[nH]c1=O
inactive: dose: 62.5 mg/kg/injection, schedule: Q01DX001 (ip), vehicle: Klucel (hydroxypropylcellulose) (HPC) 102 % of control | dose: 125.0 mg/kg/injection, schedule: Q01DX001 (ip), vehicle: Klucel (hydroxypropylcellulose) (HPC) 102 % of control | dose: 250.0 mg/kg/injection, schedule: Q01DX001 (ip), vehicle: Klucel (hydroxypropylcellulose) (HPC) 102 % of control

O=C(CC(O)c1ccccc1)Nc1ccccn1 (stereo unspecified)
inactive: [7] 98 % of control | [8] 102 % of control | [9] 93 % of control

Clc1ccc2c(NC3CCC(NC4CCCCC4)CC3)ccnc2c1 (stereo unspecified)
inactive: dose: 7.0 mg/kg/injection, schedule: Q01DX Z (ip), vehicle: carboxymethylcellulose (CMC) 102 % of control | dose: 10.0 mg/kg/injection, schedule: Q01DX Z (ip), vehicle: carboxymethylcellulose (CMC) 96 % of control | dose: 16.0 mg/kg/injection, schedule: Q01DX Z (ip), vehicle: carboxymethylcellulose (CMC) 98 % of control

O=c1[nH]c(=O)n(C2OC(CO)C(O)C2O)c2ccccc12 (stereo unspecified)
inactive: [7] 102 % of control | [8] 93 % of control | [9] 93 % of control

O=C1c2ccccc2C(=O)N1CCl
inactive: [13] 93 % of control | [14] 104 % of control | [15] 114 % of control

Source: PubChem BioAssay AID248 (DTP/NCI, 2004)
